Laboratory results taken from PubChem BioAssay (NCI).
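All cell lines were grown in 96-well plates and treated with compound for 48 hours. TGI is the concentration that stops growth completely.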 *1 amine or outer side, *2 acyl side, *3 side chain or, on linkers, in order; H or OH if unused. Where a SMILES comes first, the peptide text is derived from it. [ ]: non-standard residue; d: D form. The star is where a group is joined. X31 = CC(=O)N(C)SCC(N[*:1])C(=O)[*:2]; Fmoc = O=C(OCC1c2ccccc2-c2ccccc21)*; For = O=C*

Assays:
Assay in all cases: DTP human tumour cell line panel, 48 h
NCI-H23 lung = system: NCI-H23 lung
NCI-H522 lung = system: NCI-H522 lung
COLO 205 colon = system: COLO 205 colon
786-0 renal = system: 786-0 renal
HCT-15 colon = system: HCT-15 colon
SF-268 CNS = system: SF-268 CNS
SN12C renal = system: SN12C renal
UO-31 renal = system: UO-31 renal
IGROV1 ovarian = system: IGROV1 ovarian
OVCAR-3 ovarian = system: OVCAR-3 ovarian
A549 NSCLC = system: A549 NSCLC

| SMILES | TGI (NCI-H23 lung) [µM] | TGI (NCI-H522 lung) [µM] | TGI (COLO 205 colon) [µM] | TGI (786-0 renal) [µM] | TGI (HCT-15 colon) [µM] | TGI (SF-268 CNS) [µM] | TGI (SN12C renal) [µM] | TGI (UO-31 renal) [µM] | TGI (IGROV1 ovarian) [µM] | TGI (OVCAR-3 ovarian) [µM] | TGI (A549 NSCLC) [µM] |
| --- | --- | --- | --- | --- | --- | --- | --- | --- | --- | --- | --- |
| COc1nc(OC)nc(Sc2ccc(Sc3ccc(Sc4nc(OC)nc(OC)n4)cc3)cc2)n1 | > 100 | > 100 | > 100 | > 100 | > 100 | > 100 | > 100 | > 100 | > 100 | > 100 | > 100 |
| COC(=O)CCC1(O)C=CC(=O)C=C1 | 97.4 | 28.8 | 40.2 | > 100 | 43.2 | > 100 | > 100 | > 100 | > 100 | 59.5 | > 100 |
| CC/C=C/C(/C=C/C[C@]1(CC)C[C@H](CC)[C@H](CC(=O)O)OO1)CC (some centres not stated) | 6.04 | 3.44 | 3.86 | 3.32 | 8.97 | 9.57 | 14.7 | 0.947 | 0.899 | 4.17 | 3.99 |
| NCCCCCNOCCCN | > 100 | > 100 | > 100 | > 100 | > 100 | > 100 | > 100 | > 100 | > 100 | > 100 | > 100 |
| CC1(C)N=C(Oc2ccccc2)n2nccc2N1 | > 100 | > 100 | > 100 | > 100 | > 100 | > 100 | > 100 | > 100 | > 100 | > 100 | > 100 |
| Cc1ccc(N2C(=O)C(=O)N(/N=C3\C(=O)Nc4ccccc43)C2=S)cc1 | > 100 | > 100 | > 100 | > 100 | > 100 | > 100 | > 100 | > 100 | > 100 | > 100 | > 100 |
| COC(=O)CCC(C)[C@H]1CCC2C3C(C[C@H](OC(C)=O)[C@@]21C)[C@@]1(C)CCC2(C[C@H]1C[C@H]3OC(C)=O)OOC1(CCCCC1)OO2 (some centres not stated) | > 100 | 60.5 | > 100 | 48.6 | > 100 | > 100 | > 100 | 25.7 | 20.8 | > 100 | 70.7 |
| Cc1nc2nn(C)cc2c(=O)n1/N=C/c1ccccc1 | > 100 | > 100 | > 100 | > 100 | > 100 | > 100 | > 100 | > 100 | > 100 | > 100 | > 100 |
| CC(=O)/C(=C(/Br)I)c1ccccc1 | 16.8 | 3.11 | 26.4 | 28 | 17.7 | > 46.3 | 17.4 | 25.1 | 49.3 | 17.9 | 51.7 |
| CCCOP(=S)(N1CC1)N1CC1 | > 100 | > 100 | > 100 | > 100 | > 100 | > 100 | > 100 | > 100 | > 100 | > 100 | > 100 |
| CC(=O)N(C)SCC(NC(=O)C(Cc1ccccc1)NC(=O)OCC1c2ccccc2-c2ccccc21)C(=O)NC(Cc1ccccc1)C(=O)NC(Cc1cn(C=O)c2ccccc12)C(=O)NC(CCCCNC(=O)OCC1c2ccccc2-c2ccccc21)C(=O)NC(C(=O)NC(CSN(C)C(C)=O)C(=O)NC(C(N)=O)C(C)O)C(C)O (configuration not stated) (Fmoc-F[X31]FW(For)K(Fmoc)T[X31]T-NH2; configuration not given here) | > 100 | > 100 | > 100 | > 100 | > 100 | > 100 | > 100 | 70.2 | > 100 | > 100 | > 100 |
| Cc1cc(C)nc(NS(=O)(=O)c2ccc(NC(=O)c3cccc4c(N)c5ccccc5nc34)cc2)n1 | > 100 | > 100 | > 100 | > 100 | > 100 | > 100 | > 100 | > 100 | > 100 | > 100 | > 100 |
